Experimental data published in article PMC8653295 (Chemistry (Weinheim an Der Bergstrasse, Germany), 2021).
Values joined by “and” are separate entries in the source; they are usually repeats but may differ in a detail not shown here. Equal entries are not always repeated.

Tests used:
SARS‐CoV‐2 PL^pro = SARS‐CoV‐2 PL^pro (Severe acute respiratory syndrome coronavirus 2, UniProt P0DTD1); assay: biochemical; assay type: biochemical; conditions: for inhibition of SARS-CoV-2 PLpro: 1 µM
SARS‐CoV PL^pro = SARS‐CoV PL^pro (Severe acute respiratory syndrome coronavirus, UniProt P0C6X7); assay: biochemical; assay type: biochemical; conditions: for inhibition of SARS-CoV PLpro: 10 µM
[1] = biological target: interaction of the RBD of the SARS‐CoV‐2 S protein with the ACE2 receptor (Severe acute respiratory syndrome coronavirus 2, UniProt P0DTC2); assay type: binding; conditions: for inhibition of the S/ACE2 interaction: 20 µM

Compound | inhibition of SARS-CoV-2 PLpro (SARS‐CoV‐2 PL^pro) | inhibition of SARS-CoV PLpro (SARS‐CoV PL^pro) | inhibition of the S/ACE2 interaction [1] | other results
Na12[PbO8Pd12 (PO4)8] ⋅ 38H2O [POM‐1] | 68% | 100% | 52% | concentration up to which no significant cytotoxic effects / tolerated well (Caco‐2 cells): ≥ 200 µM; concentration up to which no significant cytotoxic effects / tolerated well (CaLu‐3 cells): ≥ 200 µM
Cn1cc(-c2ccccc2)[n+](C)[c]1[Au-][c]1n(C)cc(-c2ccccc2)[n+]1C.[I-] [Au‐24] | -17% | 12% | 18% | 
CCN(CC)C(=S)SSC(=S)N(CC)CC [DS, disulfiram, reference compound] |  |  |  | inhibition at 1 µM (SARS‐CoV‐2 PL^pro; read-out: inhibition of SARS-CoV-2 PLpro): 73%; inhibition at 10 µM (SARS‐CoV PL^pro; read-out: inhibition of SARS-CoV PLpro): 87%
CC(C)n1[c]([Au-][c]2n(C(C)C)c3ccccc3[n+]2C(C)C)[n+](C(C)C)c2ccccc21.[Br-] [Au‐22] | 7% | 39% | 23% | 
CCn1[c]([Au-][S]C(=S)N2CCC(C(=O)NC3C(O)OC(CO)C(O)C3O)CC2)[n+](CC)c2ccccc21 (mixture of isomers) [Au‐35] | 58% | 85% | 0% | IC50 (SARS‐CoV‐2 PL^pro): 410 ± 140 nM; IC50 SARS‐CoV‐2 PL^pro (SARS‐CoV‐2 PL^pro): Submicromolar; IC50 SARS‐CoV PL^pro (SARS‐CoV PL^pro): Submicromolar
C1=CCCC=CCC1.Cn1[c-][n+](C)c(-c2ccc(F)cc2)c1.[Cl-].[Rh+] [Rh‐10] | 45% | 90% | 14% | 
CCP(CC)CC.[Au+].[Cl-] [Au‐3, (triethylphosphine)AuCl, reference compound] | 55% and > 50% | 95% and > 50% | 24% | IC50 (SARS‐CoV‐2 PL^pro): 1100 ± 120 nM; IC50 (SARS‐CoV PL^pro): 1200 ± 440 nM
C1=CCCC=CCC1.CCn1[c-][n+](CC)c(-c2ccc(F)cc2)c1.[I-].[Rh+] [Rh‐6] | 19% | 70% | 22% | 
COc1ccc(C#[C][Au-][c]2n(C)c3ccccc3[n+]2C)cc1 [Au‐6] |  |  | 16% | 
Cc1ccc(C(C)C)cc1.Cc1ccc2c(c1)[n+](Cc1ccccc1)[c-]n2Cc1ccccc1.[Br-].[Br-].[Ru+2] [Ru‐2] | 5% | 20% | 0% | 
((NH2)3C)4[(BrC6H4As)2Mo6O24] ⋅ 2H2O [POM‐9] | 7% | 13% | 7% | 
[Cl][Au].c1ccc(P(c2ccccc2)c2ccccc2)cc1 [Au‐4, (triphenylphosphine)AuCl, reference compound] | 78% and > 50% | 50% and > 50% | 19% | 
Cn1cc(-c2ccccc2)n(C)[c]1=[Au][Cl] [Au‐14] | 23% | 51% | 17% | 
CC(=O)OC[C@H]1O[C@@H]([S-])[C@H](OC(C)=O)[C@@H](OC(C)=O)[C@@H]1OC(C)=O.CCP(CC)CC.[Au+] [Au‐1, auranofin, reference compound] | 51% and > 50% | 58% and > 50% | 20% | 
[Au+3].[Cl-].[Cl-].[Cl-].[Cl-].[H+] [Au‐5, chloroauric acid, reference compound] | 72% and > 50% | 89% and > 50% | 45% | 
C[CH2][Hg][S]c1ccccc1C(=O)[O-].[Na+] [Hg‐1, thiomersal, reference compound] | 9% | -63% | 7% | 
Cc1ccc(C(C)C)cc1.[Cl-].[Cl-].[Ru+2].[c-]1n(Cc2ccccc2)cc[n+]1Cc1ccccc1 [Ru‐9] | 10% | 12% | 2% | 
CCn1cc(-c2ccccc2)[n+](CC)[c]1[Au-][c]1n(CC)cc(-c2ccccc2)[n+]1CC.[I-] [Au‐23] | -10% | 25% | 23% | 
C1=CCCC=CCC1.CCn1[c-][n+](CC)c(-c2ccc(F)cc2)c1.[Br-].[Rh+] [Rh‐5] | 19% | 71% | 5% | 
K7[Ti2PW10O40] ⋅ 6H2O [POM‐3] | 15% | 63% | 68% | 
C1=CCCC=CCC1.CCn1[c-][n+](CC)c(-c2ccccc2)c1.[Br-].[Rh+] [Rh‐2] | 17% | 67% | 1% | 

Compound | inhibition of SARS-CoV-2 PLpro (SARS‐CoV‐2 PL^pro) | inhibition of SARS-CoV PLpro (SARS‐CoV PL^pro) | inhibition of the S/ACE2 interaction [1] | other results
C1=CCCC=CCC1.CCn1[c-][n+](CC)c(-c2ccccc2)c1.[Cl-].[Rh+] [Rh‐1] | -4% | 67% | 0% | 
O=[N+]([O-])[O-].[Ag+] [Ag‐1, silver nitrate, reference compound] | 72% | 100% | 6% | IC50 (SARS‐CoV‐2 PL^pro): 450 ± 210 nM; activity against SARS‐CoV PL^pro (in words) (SARS‐CoV PL^pro): completely inhibited
C1=CCCC=CCC1.Cn1[c-][n+](C)c(-c2ccc(F)cc2)c1.[Br-].[Rh+] [Rh‐11] | 48% | 91% | 14% | 
[Cl][Ti]([Cl])([Cl])[Cl] [Ti‐2, titanium(IV) tetrachloride, reference compound] | -3% | -7% | 0% | activity against SARS‐CoV‐2 PL^pro (in words) (SARS‐CoV‐2 PL^pro): inactive; activity against SARS‐CoV PL^pro (in words) (SARS‐CoV PL^pro): inactive; activity against the S/ACE2 interaction (in words) [1]: inactive
C1=CCCC=CCC1.CCn1[c-][n+](CC)c(-c2ccc(F)cc2)c1.[Cl-].[Rh+] [Rh‐4] | 17% | 72% | 6% | 
CC(C)n1cc(-c2ccccc2)[n+](C(C)C)[c]1[Au-][c]1n(C(C)C)c(-c2ccccc2)c[n+]1C(C)C.[I-] [Au‐29] | 4% | 24% | 8% | 
Na6[TeW6O24] ⋅ 22H2O [POM‐5] | 69% | 49% |  | concentration up to which no significant cytotoxic effects / tolerated well (Caco‐2 cells): ≥ 200 µM; concentration up to which no significant cytotoxic effects / tolerated well (CaLu‐3 cells): ≥ 200 µM
K6H2[CoW11TiO40] ⋅ 12H2O [POM‐4] | 7% | 44% | 82% | activity against SARS‐CoV PL^pro (in words) (SARS‐CoV PL^pro): active only against the enzyme from SARS‐CoV
C1=CCCC=CCC1.CCn1[c-][n+](CC)c(-c2ccccc2)c1.[I-].[Rh+] [Rh‐3] | 15% | 63% | 0% | 
Cc1cn(C/C=C/[c-]2cccc2)c(=O)[nH]c1=O.Cc1cn(C/C=C/[c-]2cccc2)c(=O)[nH]c1=O.[Fe+2] [Fe‐12] | -8% | -4% | 28% | 
O=C(NC1C(O)OC(CO)C(O)C1O)C1CCN(C(=S)[S][Au][PH](c2ccccc2)(c2ccccc2)c2ccccc2)CC1 (mixture of isomers) [Au‐36] | 74% | 79% | 0% | IC50 (SARS‐CoV‐2 PL^pro): 140 ± 90 nM; IC50 SARS‐CoV‐2 PL^pro (SARS‐CoV‐2 PL^pro): Submicromolar; IC50 (SARS‐CoV PL^pro): 330 ± 160 nM; IC50 SARS‐CoV PL^pro (SARS‐CoV PL^pro): Submicromolar
Cs3K[(HO2CC6H4CH2P)2Mo5O21] ⋅ 5H2O [POM‐8] | 7% | 5% | 9% | 
Cc1cn(CC=C[c-]2cccc2)c(=O)[nH]c1=O.[Ru+2].c1cc[cH-]c1 [Ru‐17] | -17% | 3% | 26% | 
Cn1[c]([Au-][c]2n(C)c3ccccc3[n+]2C)[n+](C)c2ccccc21.[I-] [Au‐21] | 10% | 11% | 22% | 
C1=CCCC=CCC1.Cn1[c-][n+](C)c(-c2ccccc2)c1.[Br-].[Rh+] [Rh‐9] | 50% | 94% | 17% | IC50 (SARS‐CoV‐2 PL^pro): 2200 ± 1000 nM; IC50 SARS‐CoV‐2 PL^pro (SARS‐CoV‐2 PL^pro): low micromolar range; IC50 (SARS‐CoV PL^pro): 6700 ± 2400 nM; IC50 SARS‐CoV PL^pro (SARS‐CoV PL^pro): low micromolar range
C1=CCCC=CCC1.Cn1[c-][n+](C)c(-c2ccccc2)c1.[Cl-].[Rh+] [Rh‐8] | 35% | 93% | 12% | 
CC[n+]1[c-]n(CC2(c3ccc(Cl)cc3Cl)OCC(COc3ccc(N4CCN(C(C)=O)CC4)cc3)O2)cc1.[Au+].[Cl-] (stereo not drawn) [Au‐19] | 2% | 94% and > 80% | 16% | 
((NH2)3C)4[(N3C6H4As)2Mo6O24] [POM‐10] | 4% | 7% | 6% | 
[Cl][Au-][c]1n(Cc2ccccc2)cc(-c2ccccc2)[n+]1Cc1ccccc1 [Au‐17] | 13% | -3% | 9% | activity against SARS‐CoV‐2 PL^pro (in words) (SARS‐CoV‐2 PL^pro): inactive; activity against SARS‐CoV PL^pro (in words) (SARS‐CoV PL^pro): inactive
CC(C)n1cc(-c2ccccc2)n(C(C)C)[c]1=[Au][Cl] [Au‐16] | 41% | 57% | 10% | 
